For 13 compounds, herbicidal activity results are on record in US20240150303A1, “DIAMINOTRIAZINE COMPOUNDS” (BASF SE, priority 2021, published 2024).

Experiment in all cases: greenhouse pre-emergence herbicidal test
What all share (assay type): in vivo

One assay relates to Abutilon theophrasti. From the text: The culture containers used were plastic flowerpots containing loamy sand with approximately 3.0% of humus as the substrate. The seeds of the test plants were sown separately for each species.
For the pre-emergence treatment, the active ingredients, which had been suspended or emulsified in water, were applied directly after sowing by means of finely distributing nozzles.
The containers were irrigated gently to promote germination and growth and subsequently covered with transparent plastic hoods until the plants had rooted. This cover caused uniform germination of the test plants, unless this had been impaired by the active ingredients.
Depending on the species, the plants were kept at 10-25° C. or 20-35° C., respectively.
The test period extended over 2 to 4 weeks. During this time, the plants were tended, and their response to the individual treatments was evaluated.
Evaluation was carried out using a scale from 0 to 100. 100 means no emergence of the plants, or complete destruction of at least the aerial moieties, and 0 means no damage, or normal course of growth. A moderate herbicidal activity is given at values of at least 60, a good herbicidal activity is given at values of at least 70, and a very good herbicidal activity is given at values of at least 85.
The plants used in the greenhouse experiments were of the following species: […]

Another assay has as its system Setaria faberi. From the text:
(§1) The seeds of the test plants were sown separately for each species. For the pre-emergence treatment, the active ingredients, which had been suspended or emulsified in water, were applied directly after sowing by means of finely distributing nozzles. The containers were irrigated gently to promote germination and growth and subsequently covered with transparent plastic hoods until the plants had rooted. This cover caused uniform germination of the test plants, unless this had been impaired by the active ingredients. […] The test period extended over 2 to 4 weeks. During this time, the plants were tended, and their response to the individual treatments was evaluated. Evaluation was carried out using a scale from 0 to 100. 100 means no emergence of the plants, or complete destruction of at least the aerial moieties, and 0 means no damage, or normal course of growth. A moderate herbicidal activity is given at values of at least 60, a good herbicidal activity is given at values of at least 70, and a very good herbicidal activity is given at values of at least 85. The plants used in the greenhouse experiments were of the following species: [table]

A further assay concerns Amaranthus retroflexus.
Text: as §1

The subject of another assay is Echinocloa crus-galli.
Text: as §1

Take `COc1c(Br)ccc(C)c1Nc1nc(N)nc(C(C)(C)F)n1` [Example 62]: the herbicidal activity in the assay with Abutilon theophrasti (62 g/ha), in the assay on Setaria faberi (31 g/ha), with Amaranthus retroflexus (31 g/ha), with Amaranthus retroflexus (62 g/ha), in the assay on Echinocloa crus-galli (31 g/ha) and in the assay on Echinocloa crus-galli (62 g/ha) was 100% each time.
For `COc1c(Cl)cc(F)c(C)c1Nc1nc(N)nc(C(C)(F)CBr)n1` (centres unmarked) [Example 66], the herbicidal activity in the assay with Abutilon theophrasti (62 g/ha), with Setaria faberi (62 g/ha), with Amaranthus retroflexus (62 g/ha) and in the assay with Echinocloa crus-galli (62 g/ha) was 100% in each case.
Consider `COc1c(F)cc(Br)c(Cl)c1Nc1nc(N)nc(C(C)(C)F)n1` [Example 58], for which the herbicidal activity in the assay on Abutilon theophrasti (62.5 g/ha), in the assay on Setaria faberi (62 g/ha), in the assay with Setaria faberi (62.5 g/ha), in the assay on Amaranthus retroflexus (62 g/ha), with Echinocloa crus-galli (62 g/ha) and in the assay on Echinocloa crus-galli (62.5 g/ha) was 100% in each case.
With `COc1c(F)cc(C)c(Cl)c1Nc1nc(N)nc(C(C)(C)F)n1` [Example 55], the herbicidal activity in the assay on Abutilon theophrasti (62 g/ha), with Abutilon theophrasti (62.5 g/ha), with Setaria faberi (62 g/ha), in the assay on Amaranthus retroflexus (62.5 g/ha), in the assay on Echinocloa crus-galli (62 g/ha) and with Echinocloa crus-galli (62.5 g/ha) was 100% throughout.
Take `COc1c(Br)cc(F)c(Cl)c1Nc1nc(N)nc(C(C)F)n1` (centres unmarked) [Example 41]: the herbicidal activity in the assay with Abutilon theophrasti (62 g/ha), in the assay on Setaria faberi (62 g/ha), in the assay on Setaria faberi (62.5 g/ha), in the assay with Amaranthus retroflexus (62.5 g/ha), in the assay with Echinocloa crus-galli (62 g/ha) and in the assay with Echinocloa crus-galli (62.5 g/ha) was 100% each time.
`COc1c(Br)cc(F)c(Cl)c1Nc1nc(N)nc(C(C)(C)F)n1` [Example 29]: the herbicidal activity with Abutilon theophrasti (31 g/ha), with Abutilon theophrasti (62 g/ha), with Setaria faberi (31 g/ha), in the assay with Setaria faberi (62 g/ha), with Amaranthus retroflexus (31 g/ha) and with Amaranthus retroflexus (62 g/ha) was 100% throughout.
For the compound `COc1c(Cl)cc(Cl)c(C)c1Nc1nc(N)nc(C2(F)CC2)n1` [Example 93], the herbicidal activity worked out at 80% in the assay on Abutilon theophrasti (62.5 g/ha); 100% with Setaria faberi (62 g/ha); 70% in the assay with Setaria faberi (62.5 g/ha); 100% with Amaranthus retroflexus (62 g/ha); 100% in the assay on Amaranthus retroflexus (62.5 g/ha); 100% in the assay with Echinocloa crus-galli (62 g/ha).
Turning to `COc1c(F)ccc(C)c1Nc1nc(N)nc(C(C)(C)F)n1` [Example 16], the herbicidal activity in the assay on Abutilon theophrasti (62 g/ha), in the assay with Abutilon theophrasti (250 g/ha), in the assay with Amaranthus retroflexus (62 g/ha), in the assay on Amaranthus retroflexus (250 g/ha), in the assay on Echinocloa crus-galli (62 g/ha) and in the assay with Echinocloa crus-galli (250 g/ha) was 100% each time.
With `COc1c(C)ccc(C)c1Nc1nc(N)nc(C(C)(C)OC)n1` [Example 17], the herbicidal activity in the assay on Abutilon theophrasti (250 g/ha), in the assay on Amaranthus retroflexus (250 g/ha) and in the assay with Echinocloa crus-galli (250 g/ha) was 100% in each case.
Consider `CC(F)c1nc(N)nc(Nc2c(Cl)cccc2OC(F)F)n1` (racemic) [Example 95], for which the herbicidal activity in the assay on Abutilon theophrasti (62 g/ha), with Setaria faberi (62 g/ha), in the assay with Amaranthus retroflexus (62 g/ha) and in the assay on Echinocloa crus-galli (62 g/ha) was 100% throughout.
In the case of `COc1c(Br)cc(Cl)c(C)c1Nc1nc(N)nc(C(C)(F)CBr)n1` (racemic) [Example 99], the herbicidal activity in the assay on Abutilon theophrasti (62 g/ha), with Setaria faberi (62 g/ha) and with Amaranthus retroflexus (62 g/ha) was 100% in each case.
`COc1c(Cl)cc(Cl)c(C)c1Nc1nc(N)nc(C(C)(C)F)n1` [Example 34]: the herbicidal activity in the assay with Abutilon theophrasti (62.5 g/ha), in the assay on Amaranthus retroflexus (62.5 g/ha) and in the assay on Echinocloa crus-galli (62.5 g/ha) was 100% throughout.
As to `CCC(C)(F)c1nc(N)nc(Nc2c(C)c(F)cc(Br)c2OC)n1` (centres unmarked) [Example 79], the herbicidal activity in the assay on Abutilon theophrasti (62 g/ha), in the assay with Setaria faberi (62 g/ha) and in the assay with Amaranthus retroflexus (62 g/ha) was 100% throughout.
